Columns and labels:
Format in all cases: cell-based, human
[1] = system: control beta cells; experiment: UPR, insulin and proinsulin content and ER morphology in control beta cells
Method: (§1) Human ES or iPS cells were dissociated by Dispase (3-5 mins) and Accutase (5 mins, Sigma). Cells were suspended in human ES medium containing 10 μM Y27632, a ROCK inhibitor, and filtered through a 70 μm cell strainer. Then cells were seeded at a density of 800,000 cells/well in 12-well plates. After 1 or 2 days, when cells reached 80-90% confluence, differentiation was started. On Day 1: cells were briefly washed once with RPMI medium, then were treated with Activin A (100 ng/ml), Wnt3A (25 ng/ml) and 0.075 mM EGTA in RPMI medium. On day 2-3: cells were treated with Activin A (100 ng/ml) and 0.2% FBS in RPMI medium. On day 4-5: cells were treated with FGF10 (50 ng/ml), KAAD-cyclopamine (0.25 μM) and 2% FBS in RPMI medium. On day 6-8: cells were treated with FGF10 (50 ng/ml), KAAD-cyclopamine ([…] (2 μM) and LDN-193189 (250 nM), B27 in DMEM medium. On day 9-10: cells were treated with exendin-4 (50 ng/ml), SB431542 (2 μM) and B27 in CMRL medium. On day 11-12, cells were treated with T4 (thyroid hormone, 0.02 nM) and B27 in CMRL medium. After day 12, cells were incubated in CMRL medium with B27. Cells were analyzed between day 14 and day 16.
Wolfram and control iPSCs or fibroblasts were incubated with indicated dosages of thapsigargin (TG) or tunicamycin (TM) (Both were from Sigma) for 6 hours after an overnight starvation. 1 mM Sodium 4-phenylbutyrate (4PBA) (EMD Chemicals Inc.) was administrated one hour prior to and through TG or TM treatment. Cells were harvested and subjected to RNA and protein analysis. In vitro differentiated beta cells were treated with 10 nM TG for 12 hours, or 0.5 μg/ml TM for 6 hours with or without 1 mM 4PBA treatment one hour prior to and through TG or TM treatment. […] GRP78 protein level was determined by western blot using mouse-anti GRP78 antibody (Santa Cruz, sc-166490).
(§2) To determine Insulin or proinsulin content within the cell, differentiated cells were collected and lysed by M-PER protein extraction reagent (Thermo Scientific). Proinsulin and insulin contents were measured by using human proinsulin and insulin ELISA kits (Mercodia). Quantification of positively stained cells was analyzed using Celigo Cytometer system (Cyntellect), and flow cytometry analysis. To normalize insulin content to beta cell number, cultures were dissociated to single cells, and divided into three fractions: 20% of cells for cell number quantification, 40% for RNA analysis and 40% for ELISA assay to determine insulin content.
Differentiated beta cells were treated with or without 10 nM TG for 12 hours, and then fixed in 2.5% glutaraldehyde in 0.1 M Sorenson's buffer (pH 7.2) for one hour. […] The number of granules was determined using ImageJ software.

[2] = system: control beta cells; experiment: In vitro insulin and glucagon secretion assay, control beta cells
Method: (§3) Wolfram and control iPSCs or fibroblasts were incubated with indicated dosages of thapsigargin (TG) or tunicamycin (TM) (Both were from Sigma) for 6 hours after an overnight starvation. 1 mM Sodium 4-phenylbutyrate (4PBA) (EMD Chemicals Inc.) was administrated one hour prior to and through TG or TM treatment. Cells were harvested and subjected to RNA and protein analysis. In vitro differentiated beta cells were treated with 10 nM TG for 12 hours, or 0.5 μg/ml TM for 6 hours with or without 1 mM 4PBA treatment one hour prior to and through TG or TM treatment. For long-term 4PBA treatment, cells were incubated with 1 mM 4PBA starting on day 9 of differentiation, when cells reached pancreatic endoderm stage, and maintained until day 15. Then cells were subjected to insulin secretion, RNA and protein analysis. RNA was isolated using RNAeasy plus kit (Qiagen). cDNA was generated by using RT kit (Promega). Primers for PCR analysis were as follows: XBP-1 for gel-imaging (Lee, Won et al.) forward 5′ […] 3′ (SEQ ID NO:1), reverse 5′ […] 3′ (SEQ ID NO:2); sXBP-1 for QPCR (Merquiol, Uzi et al. 2011) forward 5′ CTGAGTCCGCAGCAGGTG 3′(SEQ ID NO:3), reverse 5′ […] 3′ (SEQ ID NO:4); GRP78 forward 5′ […] 3′(SEQ ID NO:5), reverse 5′ […] 3′ (SEQ ID NO:6); Insulin forward 5′ […] 3′(SEQ ID NO:7), reverse 5′ CAATGCCACGCTTCTGC 3′(SEQ ID NO:8). GRP78 protein level was determined by western blot using mouse-anti GRP78 antibody (Santa Cruz, sc-166490).
(§4) Cells were cultured in 12-well dishes. After 14 days of differentiation, cells were washed for 1 hour in CMRL medium, then incubated in 300 μl CMRL medium containing 5.6 mM glucose for 1 hour and the medium was collected. After that, 300 μl CMRL medium containing 16.9 mM glucose, or 15 mM arginine, or 30 mM potassium, or 1 mM DBcAMP+16.9 mM glucose was used to treat cells for 1 hour and then the medium was collected. Human C-peptide concentration in the medium was measured by ultra-sensitive human C-peptide ELISA kit according to manufacturer's instructions (Mercodia). Glucagon levels in medium were measured by using Glucagon ELISA kit (ALPCO Diagnostics).

[3] = system: Wolfram beta cells; experiment: In vitro insulin and glucagon secretion assay, Wolfram beta cells
Method: as §3, §4

[4] = system: control iPS cells; experiment: Unfolded protein response (UPR) analysis, control iPS cells; conditions: 10 nM TG, 6 hour
Method: as §3, with “3′(SEQ ID NO:7), reverse 5′ CAATGCCACGCTTCTGC 3′(SEQ ID NO:8).” left out

[5] = system: Wolfram beta cells; experiment: UPR, insulin and proinsulin content and ER morphology in Wolfram beta cells
Method: as §1, §3, §2
Differentiated beta cells were treated with or without 10 nM TG for 12 hours, and then fixed in 2.5% glutaraldehyde in 0.1 M Sorenson's buffer (pH 7.2) for one hour. Samples were processed and imaged by Dignostic Service, Department of Pathology and Cell Biology, Columbia University. Secretory granule structure and endoplasmic reticulum (ER) morphology were visually recognized. The number of granules was determined using ImageJ software.

[6] = system: Wolfram iPS cells; experiment: Unfolded protein response (UPR) analysis, Wolfram iPS cells and fibroblasts
Method: as §3

[7] = system: GCK mutant iPS-derived beta-like cells; experiment: Insulin (C-peptide) secretion assay in vitro, GCK mutant beta-like cells; conditions: 1 hour, identical to control cells
Method: Typically, cells were cultured in 12-well dishes. After 12 days of differentiation, cells were washed for 1 hour in CMRL medium. Cells were then incubated in 300 μl CMRL medium containing 5.6 mM glucose for 1 hour and the medium was collected. Subsequently, 300 μl CMRL medium containing 16.9 mM glucose or other secretagogues was used to treat cells for 1 hour, following which the medium was collected. For in vivo tests, mice were deprived of food overnight with ad libitium access to water. After 12-14 hours of fasting, capillary blood glucose concentrations were determined by tail vein bleed using an AlphaTRACK glucometer (Abbott). Venous blood samples were collected via the submandibular vein. Intraperitoneal glucose was then administered (1 mg/g body weight) and ½ hour later blood samples were obtained via the submandibular vein. Blood samples were kept at room temperature for 2 hours and serum was obtained by centrifuging blood samples at 4000 rpm for 15 min. C-peptide concentrations in medium or mouse serum were measure using an ultrasensitive human C-peptide ELISA kit according to manufacturer's instructions (Mercodia). […]
Typically, cells were cultured in 12-well dishes. […] After 12-14 hours of fasting, capillary blood glucose concentrations were determined by tail bleed using an AlphaTRACK glucometer (Abbott). […]

[8] = control cells, arginine stimulation, TG treatment
[9] = Wolfram beta cells, TG 10 nM, 12 hours

C/C=C(/C)C(=O)O[C@H]1C(C)=C2[C@H]([C@@H]1OC(=O)CCCCCCC)[C@@](C)(OC(C)=O)C[C@H](OC(=O)CCC)[C@@]1(O)[C@H]2OC(=O)[C@@]1(C)O [TG, thapsigargin]
proinsulin to insulin ratio ([1]; control beta cells challenged with TG, ~0.47 without TG): 0.51 | ER morphology (TEM) ([1]; control cells, 12 hours of 10 nM TG): remained unaffected | production of insulin ([1]; control cells, TG 10 nM, 12 hours): unaffected | increase of insulin output in response to 16.9 mM glucose ([2]; TG treated control beta cells (10 nM, 12 hour)): 1.6 fold | reduction of stimulated glucagon secretion [2, 8]: 28% | reduction of stimulated insulin secretion [2, 8]: −3% | insulin secretion in response to 16.9 mM glucose ([3]; TG treated Wolfram cells (10 nM, 12 hour)): failed to increase insulin secretion | reduction of stimulated glucagon secretion ([3]; WFS1 cells, arginine stimulation, TG treatment): 24% | reduction of stimulated insulin secretion ([3]; WFS1 mutant cells, arginine stimulation, TG treatment): 43% | response to DBcAMP (C-peptide secretion) ([3]; Wolfram beta cells treated with TG, 2.6 without TG): 1.2 fold | insulin-secretion in response to potassium ([3]; Wolfram beta cells treated with TG, 3.9 without TG): 2.2 fold | fold increase of C-peptide in the medium in response to arginine ([3]; Wolfram beta cells treated with TG, 4.0 without TG): 2.3 fold | increase of GRP78 mRNA [4]: 2 fold | proinsulin to insulin ratio ([5]; Wolfram beta cells challenged with TG, ~0.55 without TG): 0.73 | ER morphology (TEM) ([5]; Wolfram beta cells, 12 hours of 10 nM TG): greatly dilated | reduction of insulin production at the mRNA level [5, 9]: 46% | reduction of insulin production at the protein level [5, 9]: 31% | increase of GRP78 mRNA ([6]; Wolfram cells, 10 nM TG, 6 hour): 4 fold | GRP78 mRNA level ([6]; stem cells, increasing concentration of TG, 6 hours): dose-dependent increase

COC(=O)C1=C(C)NC(C)=C([N+](=O)[O-])C1c1ccccc1C(F)(F)F (stereo not drawn) [Bay K8644]
increase in C-peptide release ([7]; GCK^G299R/+ and GCK^G299R/hygro cells): 3-5 fold | increase in C-peptide release ([7]; GCK^G299R/+ cells): 5 fold
